According to patent US20240228535A1 (priority 2022, published 2024):

Biological target: SARS2 coronavirus 3CL protease (Severe acute respiratory syndrome coronavirus 2, UniProt P0DTD1)
Assay: biochemical
Settings: 5 nM enzyme, 30 min pre-incubation with compound, 15 μM peptide substrate, 4 h at room temperature; read-out: FRET Potency (nM); IC50 values in the SARS2 3CLPro FRET assay

Structure (SMILES)	IC50
CC(C)OC(=O)Nc1ccc(Cl)cc1C(=O)N[C@@H](C[C@@H]1CCNC1=O)C(=O)C(=O)NC1CC1 [Example 96, isopropyl N-[4-chloro-2-[[(1S)-3-(cyclopropylamino)-2,3-dioxo-1-[[(3S)-2-oxopyrrolidin-3-yl]methyl]propyl]carbamoyl]phenyl]carbamate]	6 nM
C[C@@H]1C[C@@H](C[C@H](NC(=O)c2cc(Cl)ccc2NC(=O)[C@@H]2CNC(=O)O2)C(=O)C(=O)NC2CC2)C(=O)N1 [Example 193, (5S)-N-[4-chloro-2-[[(1S)-3-(cyclopropylamino)-1-[[(3S,5R)-5-methyl-2-oxo-pyrrolidin-3-yl]methyl]-2,3-dioxo-propyl]carbamoyl]phenyl]-2-oxo-oxazolidine-5-carboxamide]	5.2 nM
C[C@@H]1C[C@@H](C[C@H](NC(=O)c2cc(Cl)cnc2NC(=O)C2CCC(F)(F)CC2)C(=O)C(=O)NC2CC2)C(=O)N1 [Example 39, 5-chloro-N-[(1S)-3-(cyclopropylamino)-1-[[(3S,5R)-5-methyl-2-oxo-pyrrolidin-3-yl]methyl]-2,3-dioxo-propyl]-2-[(4,4-difluorocyclohexanecarbonyl)amino]pyridine-3-carboxamide]	10.3 nM
O=C(CCC(F)(F)F)Nc1ccc(Cl)cc1C(=O)N[C@@H](C[C@@H]1CCNC1=O)C(=O)C(=O)NC1CC1 [Example 29, 5-chloro-N-[(1S)-3-(cyclopropylamino)-2,3-dioxo-1-[[(3S)-2-oxopyrrolidin-3-yl]methyl]propyl]-2-(4,4,4-trifluorobutanoylamino) benzamide]	13.1 nM
C[C@@H]1C[C@@H](C[C@H](NC(=O)c2cc(F)cnc2NC(=O)c2cccc(C(F)(F)F)c2)C(=O)C(=O)NC2CC2)C(=O)N1 [Example 67, N-[(1S)-3-(cyclopropylamino)-1-[[(3S,5R)-5-methyl-2-oxo-pyrrolidin-3-yl]methyl]-2,3-dioxo-propyl]-5-fluoro-2-[[3-(trifluoromethyl)benzoyl]amino]pyridine-3-carboxamide]	7 nM
C[C@@H]1C[C@@H](C[C@H](NC(=O)c2cc(Cl)ccc2NC(=O)c2ccc(C(F)(F)F)nc2)C(=O)C(=O)NC2CC2)C(=O)N1 [Example 225, N-[4-chloro-2-[[(1S)-3-(cyclopropylamino)-1-[[(3S,5R)-5-methyl-2-oxo-pyrrolidin-3-yl]methyl]-2,3-dioxo-propyl]carbamoyl]phenyl]-6-(trifluoromethyl)pyridine-3-carboxamide]	6.8 nM
CNC(=O)C(=O)[C@H](C[C@@H]1CCNC1=O)NC(=O)c1cc(Cl)ccc1NC(=O)C1CC1C(F)(F)F (stereo partly drawn) [Example 175]	2.8 nM
C[C@@H]1C[C@@H](C[C@H](NC(=O)c2cc(Cl)ccc2NC(=O)c2ccnc(C(F)F)c2)C(=O)C(=O)NC2CC2)C(=O)N1 [Example 92, N-[4-chloro-2-[[(1S)-3-(cyclopropylamino)-1-[[(3S,5R)-5-methyl-2-oxo-pyrrolidin-3-yl]methyl]-2,3-dioxo-propyl]carbamoyl]phenyl]-2-(difluoromethyl)pyridine-4-carboxamide]	9 nM
CC(C(=O)Nc1ccc(Cl)cc1C(=O)N[C@@H](C[C@@H]1C[C@@H](C)NC1=O)C(=O)C(=O)NC1CC1)c1cscn1 (stereo partly drawn) [Example 89, 5-chloro-N-[(1S)-3-(cyclopropylamino)-1-[[(3S,5R)-5-methyl-2-oxo-pyrrolidin-3-yl]methyl]-2,3-dioxo-propyl]-2-(2-thiazol-4-ylpropanoylamino)benzamide]	10.1 nM
C[C@@H]1C[C@@H](C[C@H](NC(=O)c2cc(Cl)ccc2NC(=O)[C@H](C)CC(F)(F)F)C(=O)C(=O)NC2CC2)C(=O)N1 [Example 209, 5-chloro-N-[(1S)-3-(cyclopropylamino)-1-[[(3S,5R)-5-methyl-2-oxo-pyrrolidin-3-yl]methyl]-2,3-dioxo-propyl]-2-[[(2R)-4,4,4-trifluoro-2-methyl-butanoyl]amino]benzamide]	9.8 nM
CNC(=O)C(=O)[C@H](C[C@@H]1C[C@@H](C)NC1=O)NC(=O)c1cc(Cl)cc(Cl)c1NC(=O)c1ccnc(C(F)(F)F)c1 [Example 231, N-[2,4-dichloro-6-[[(1S)-3-(methylamino)-1-[[(3S,5R)-5-methyl-2-oxo-pyrrolidin-3-yl]methyl]-2,3-dioxo-propyl]carbamoyl]phenyl]-2-(trifluoromethyl)pyridine-4-carboxamide]	5.6 nM
C[C@@H]1C[C@@H](C[C@H](NC(=O)c2c(NC(=O)c3ccnc(C(F)(F)F)c3)cc(F)c(F)c2F)C(=O)C(=O)NC2CC2)C(=O)N1 [Example 233, N-[2-[[(1S)-3-(cyclopropylamino)-1-[[(3S,5R)-5-methyl-2-oxo-pyrrolidin-3-yl]methyl]-2,3-dioxo-propyl]carbamoyl]-3,4,5-trifluoro-phenyl]-2-(trifluoromethyl)pyridine-4-carboxamide]	44 nM
CNC(=O)C(=O)[C@H](C[C@@H]1CCNC1=O)NC(=O)c1cc(Cl)ccc1NC(=O)OC(C)(C)C [Example 142, tert-butyl N-[4-chloro-2-[[(1S)-3-(methylamino)-2,3-dioxo-1-[[(3S)-2-oxopyrrolidin-3-yl]methyl]propyl]carbamoyl]phenyl]carbamate]	41.1 nM
CNC(=O)C(=O)[C@H](C[C@@H]1CCNC1=O)NC(=O)c1cc(Cl)ccc1NC(=O)C1(C(F)(F)F)CC1 [Example 81, 5-chloro-N-[(1S)-3-(methylamino)-2,3-dioxo-1-[[(3S)-2-oxopyrrolidin-3-yl]methyl]propyl]-2-[[1-(trifluoromethyl)cyclopropane-carbonyl]amino]benzamide]	15.9 nM
C[C@@H]1C[C@@H](C[C@H](NC(=O)c2cc(Cl)cnc2NC(=O)C23CC(C(F)(F)F)(C2)C3)C(=O)C(=O)NC2CC2)C(=O)N1 [Example 5, 5-chloro-N—((S)-4-(cyclopropylamino)-1-((3S,5R)-5-methyl-2-oxopyrrolidin-3-yl)-3,4-dioxobutan-2-yl)-2-(3-(trifluoromethyl)bicyclo[1.1.1]pentane-1-carboxamido)nicotinamide]	8.7 nM
O=C(NC1CC1)C(=O)[C@H](C[C@@H]1CCNC1=O)NC(=O)c1cc(Cl)ccc1NC(=O)C12CC(F)(C1)C2 [Example 30, N-[4-chloro-2-[[(1S)-3-(cyclopropylamino)-2,3-dioxo-1-[[(3S)-2-oxopyrrolidin-3-yl]methyl]propyl]carbamoyl]phenyl]-3-fluoro-bicyclo[1.1.1]pentane-1-carboxamide]	12.9 nM
C[C@@H]1C[C@@H](C[C@H](NC(=O)c2cc(Cl)c(F)cc2NC(=O)C2(C(F)(F)F)CC2)C(=O)C(=O)NC2CC2)C(=O)N1 [Example 33, 5-chloro-N-[(1S)-3-(cyclopropylamino)-1-[[(3S,5R)-5-methyl-2-oxo-pyrrolidin-3-yl]methyl]-2,3-dioxo-propyl]-4-fluoro-2-[[1-(trifluoromethyl)cyclopropane-carbonyl]amino]benzamide]	12.2 nM
C[C@@H]1C[C@@H](C[C@H](NC(=O)c2cc(Cl)ccc2NC(=O)C2(C(F)(F)F)CC2)C(=O)C(=O)NC2CC2)C(=O)N1 [Example 1, 5-chloro-N—((S)-4-(cyclopropylamino)-1-((3S,5R)-5-methyl-2-oxopyrrolidin-3-yl)-3,4 dioxobutan-2-yl)-2-(1-(trifluoromethyl)cyclopropane-1-carboxamido)benzamide]	7.5 nM
